“And” between values parts separate entries of the source, which are not always exact repeats. Equal values may be shown once. Read-outs that look alike come from different tables or passages of the source.
Experiments:
[1] = Enzymatic stability: hydrolysis in rat intestinal homogenate, pH 6.5, 37° C., LC-MS; conditions: per diastereoisomer, st = stable; for half-life: rat, intestinal homogenate, pH 6.5, T1/2 Int. Hom.
[2] = Chemical stability: hydrolysis in 200 mM phosphate buffer, 37° C., LC-MS; conditions: per diastereoisomer, st = stable
[3] = test system: cowpox virus; experiment: microbe, parasite or virus in culture; assay type: cell-based; conditions: read-out: IC50 Cow Pox
[4] = test system: vaccinia virus; experiment: microbe, parasite or virus in culture; assay type: cell-based; conditions: read-out: IC50 Vaccinia
[5] = test system: KB cells; experiment: cells; assay type: cell-based; conditions: read-out: IC50 KB
[6] = test system: human cytomegalovirus (HCMV); experiment: microbe, parasite or virus in culture; assay type: cell-based
[7] = test system: herpes simplex 1 (HSV-1); experiment: microbe, parasite or virus in culture; assay type: cell-based
[8] = test system: HFF cells; experiment: cells; assay type: cell-based, human; conditions: read-out: IC50 HFF
[9] = Oral bioavailability / transport study in mice, plasma LC-MS; conditions: oral AUC / intravenous AUC, dose-adjusted, total HPMPA-containing species in plasma
[10] = test system: poxviruses (vaccinia and cowpox viruses); assay type: cell-based
[11] = pH 7.4, T1/2 Buffer pH 7.4, 200 mM phosphate buffer pH 7.4, 37° C.
[12] = Human alphaherpesvirus 1, read-out: IC50 HSV-1
[13] = Human betaherpesvirus 5, read-out: IC50 HCMV

| SMILES | T1/2 Int. Hom. [1] | IC50 ([3]; Cowpox virus, HFF) [µM] | IC50 ([4]; Orthopoxvirus vaccinia, HFF) [µM] | IC50 ([5]; Homo sapiens, KB, 48 h) [µM] | IC50 ([8]; Homo sapiens, HFF) [µM] | IC50 [7, 12] [µM] | IC50 [6, 13] [nM] | further results |
| --- | --- | --- | --- | --- | --- | --- | --- | --- |
| COC(=O)[C@@H](N)Cc1ccc(OP2(=O)CO[C@@H](Cn3cnc4c(N)ncnc43)CO2)cc1 (single isomer, unassigned) [1a (S,R)] |  |  |  |  |  |  |  | half-life [1]: < 28 min |
| COC(=O)[C@@H](N)Cc1ccc(OP2(=O)CO[C@@H](Cn3cnc4c(N)ncnc43)CO2)cc1 (single isomer, unassigned) [1a (S,S)] | <28 min |  |  |  |  |  |  |  |
| COC(=O)[C@H](Cc1ccc(OP2(=O)CO[C@@H](Cn3cnc4c(N)ncnc43)CO2)cc1)NC(=O)[C@@H](N)C(C)C (single isomer, unassigned) [1f (S,R)] |  |  |  |  |  |  |  | half-life [1]: < 28 min |
| COC(=O)[C@H](Cc1ccc(OP2(=O)CO[C@@H](Cn3cnc4c(N)ncnc43)CO2)cc1)NC(=O)[C@@H](N)C(C)C (single isomer, unassigned) [1f (S,S)] | <28 min |  |  |  |  |  |  | half-life ([2]; pH 6.5, T1/2 Buffer pH 6.5, 200 mM phosphate buffer pH 6.5, 37° C.): 67 min |
| COC(=O)[C@@H](N)Cc1ccc(OP2(=O)CO[C@@H](Cn3ccc(N)nc3=O)CO2)cc1 (single isomer, unassigned) [2a (S,R)] |  |  |  |  |  |  |  | half-life [1]: < 30 min |
| COC(=O)[C@@H](N)Cc1ccc(OP2(=O)CO[C@@H](Cn3ccc(N)nc3=O)CO2)cc1 (single isomer, unassigned) [2a (S,S)] | <30 min |  |  |  |  |  |  | half-life [2, 11]: 19 min |
| COC(=O)[C@H](N)Cc1ccc(OP2(=O)CO[C@@H](Cn3ccc(N)nc3=O)CO2)cc1 (single isomer, unassigned) [2b (S,R)] | 210 min |  |  |  |  |  |  |  |
| COC(=O)[C@H](N)Cc1ccc(OP2(=O)CO[C@@H](Cn3ccc(N)nc3=O)CO2)cc1 (single isomer, unassigned) [2b (S,S)] | 72 min |  |  |  |  |  |  | half-life [2, 11]: 21 min |
| CC(C)CNC(=O)[C@@H](N)Cc1ccc(OP2(=O)COC(Cn3cnc4c(N)ncnc43)CO2)cc1 (single isomer, unassigned) [(S,R)-1e] |  |  |  |  |  |  |  | T1/2 Int. Hom. ([1]; listed as 1e (S,R)): 630 min; IC50 [3]: 2.5 µM; IC50 [4]: 1 µM; IC50 [5]: > 100 µM; IC50 ([6]; read-out: IC50 HCMV): 550 nM |
| CC(C)CNC(=O)[C@@H](N)Cc1ccc(OP2(=O)COC(Cn3cnc4c(N)ncnc43)CO2)cc1 (single isomer, unassigned) [(S,S)-1e] |  | 2 | 1.5 | > 100 | > 100 |  |  | IC50 ([7]; read-out: IC50 HSV-1): 35 µM; T1/2 Int. Hom. ([1]; listed as 1e (S,S)): 114 min; IC50 ([6]; read-out: IC50 HCMV): 1300 nM |
| CC(C)OC(=O)[C@@H](N)Cc1ccc(OP2(=O)CO[C@@H](Cn3ccc(N)nc3=O)CO2)cc1 (stereo partly drawn) [2c (S,R)] | <30 min |  |  |  |  |  |  |  |
| CC(C)OC(=O)[C@@H](N)Cc1ccc(OP2(=O)CO[C@@H](Cn3ccc(N)nc3=O)CO2)cc1 (stereo partly drawn) [2c (S,S)] | <30 min |  |  |  |  |  |  |  |
| CC(C)(C)NC(=O)[C@H](N)Cc1ccc(OP2(=O)CO[C@@H](Cn3ccc(N)nc3=O)CO2)cc1 (stereo partly drawn) [2d (S,R)] | 1732 min |  |  |  |  |  |  |  |
| CC(C)(C)NC(=O)[C@H](N)Cc1ccc(OP2(=O)CO[C@@H](Cn3ccc(N)nc3=O)CO2)cc1 (stereo partly drawn) [2d (S,S)] | 203 min |  |  |  |  |  |  |  |
| Nc1nc2c(ncn2COCCO)c(=O)[nH]1 [ACV, Acyclovir, reference compound] |  |  |  |  |  | 0.6 |  | IC50 ([7]; read-out: IC50 HSV-1): 0.7 µM |
| Nc1ncnc2c1ncn2C[C@@H](CO)OCP(=O)(O)O [Compound 1, (S)-9-(3hydroxy-2-phosphonyl-methoxypropyl)adenine, reference compound] |  |  |  |  |  |  |  | IC50 ([7]; read-out: IC50 HSV-1): 35 µM; IC50 [3]: 4 µM; IC50 [4]: 2 µM; IC50 [5]: > 100 µM; total oral bioavailability [9]: 5%; IC50 ([6]; read-out: IC50 HCMV): 410 nM |
| COC(=O)[C@@H](N)Cc1ccc(OP2(=O)CO[C@@H](Cn3cnc4c(N)ncnc43)CO2)cc1 (stereo partly drawn) [Compound 1a, Methyl(2S)-2-amino-3-(4-{[(5S)-5-[(6-amino-9H-purin-9-yl)methyl]-2-oxo-1,4,2λ^5-dioxaphosphinan-2-yl]oxy}phenyl)propanoate] |  | 3.5 | 3 | > 100 | > 100 | 35 | 450 |  |
| CC(C)CNC(=O)[C@@H](N)Cc1ccc(OP2(=O)COC(Cn3cnc4c(N)ncnc43)CO2)cc1 (stereo partly drawn) [Compound 1e, (2S)-2-Amino-3-[4-({5-[(6-amino-9H-purin-9-yl)methyl]-2-oxo-1,4,2λ^5-dioxaphosphinan-2-yl}oxy)phenyl]-N-(2-methylpropyl)propanamide] |  | 7 | 4.5 | > 100 | > 100 | 50 | 300 |  |
| COC(=O)[C@H](Cc1ccc(OP2(=O)CO[C@@H](Cn3cnc4c(N)ncnc43)CO2)cc1)NC(=O)[C@@H](N)C(C)C (stereo partly drawn) [Compound 1f, Methyl(2S)-2-[(2S)-2-amino-3-methylbutanamido]-3-[4-({(5S)-5-[(6-amino-9H-purin-9-yl)methyl]-2-oxo-1,4,2λ^5-dioxaphosphinan-2-yl}oxy)phenyl]propanoate] |  | 8 | 4 | > 100 | 100 | 35 | 300 |  |
| Nc1ccn(C[C@@H](CO)OCP(=O)(O)O)c(=O)n1 [Compound 2, (S)-HPMPC, reference compound] |  | 30 | 20 |  | 100 |  | 280 | IC50 [3]: 15 µM and 20 µM; IC50 [4]: 15 µM |
| COC(=O)[C@@H](N)Cc1ccc(OP2(=O)CO[C@@H](Cn3ccc(N)nc3=O)CO2)cc1 (stereo partly drawn) [Compound 2a, Methyl-(2S)-2-amino-3-(4-{[(5S)-5-[(4-amino-2-oxo-2H-pyrimidin-1-yl)-methyl]-2-oxo-1,4,2λ^5-dioxaphosphinan-2-yl]oxy}phenyl)propanoate] |  | 50 | 4 | > 100 | > 100 | 25 | 230 |  |
| COC(=O)[C@H](N)Cc1ccc(OP2(=O)CO[C@@H](Cn3ccc(N)nc3=O)CO2)cc1 (stereo partly drawn) [Compound 2b, Methyl(2R)-2-amino-3-(4-{[(5S)-5-[(4-amino-2-oxo-2H-pyrimidin-1-yl)-methyl]-2-oxo-1,4,2λ^5-dioxaphosphinan-2-yl]oxy}phenyl)propanoate] |  | 35 | 25 | > 100 | > 100 | 35 | 200 |  |
| CC(C)OC(=O)[C@@H](N)Cc1ccc(OP2(=O)CO[C@@H](Cn3ccc(N)nc3=O)CO2)cc1 (stereo partly drawn) [Compound 2c] |  |  |  |  |  |  |  | IC50 ([7]; read-out: IC50 HSV-1): 20 µM; IC50 [3]: 40 µM; IC50 [4]: 30 µM; IC50 [5]: > 100 µM; IC50 [8]: > 100 µM; IC50 ([6]; read-out: IC50 HCMV): 120 nM |
| CCC(C)[C@H](N)C(=O)N[C@@H](Cc1ccc(OP2(=O)CO[C@@H](Cn3ccc(N)nc3=O)CO2)cc1)C(=O)OC (stereo partly drawn) [Compound 2f, Methyl(2S)-3-[4-({(5S)-5-[(4-amino-2-oxo-1,2-dihydropyrimidin-1-yl)methyl]-2-oxo-1,4,2λ^5-dioxaphosphinan-2-yl}oxy)phenyl]-2-[(2S)-2-amino-3-ethylbutanamido]propanoate] |  | 30 | 20 | > 100 | > 100 | 15 | < 100 |  |
| Nc1ncnc2c1ncn2C[C@H]1COP(=O)(O)CO1 [Compound 6, cHPMPA, reference compound] |  | 0.6 | 1 | > 100 | 100 | 30 | 1300 |  |
| CC(C)CNC(=O)[C@@H](N)Cc1ccc(OP(=O)(O)CO[C@H](CO)Cn2cnc3c(N)ncnc32)cc1 [Compound 8, 4-[(2S)-2-amino-2-[(2-methylpropyl)carbamoyl]ethyl]phenoxy({[(2S)-1-(6-amino-9H-purin-9-yl)-3-hydroxypropan-2-yl]oxy}methyl)phosphinic acid] | st | 3 | 0.5 | > 100 | > 100 | 45 | 290 | activity against all these viruses [10]: active |
| Nc1nc(O)c2ncn(COC(CO)CO)c2n1 [DHPG, ganciclovir, reference compound] |  |  |  |  | > 100 |  | 2400 |  |

From patent US8940313B2, “Tyrosine-based prodrugs of antiviral agents” (priority 2010, dated 2015)
